Laboratory results from patent US20240299393A1, “SMALL MOLECULE DISRUPTORS OF PROTEIN INTERACTIONS IN HISTONE DEACETYLASE COMPLEXES” (Dana-Farber Cancer Institute, Inc., priority 2021, published 2024).

Columns and labels:
[1] = system: yeast S. cerevisiae Sin3 PAH1 and PAH3 domains; test: Ligand-detected NMR, yeast Sin3 PAH1 and PAH3; format: binding; settings: FIG. 27
Experimental: Ligand-detected NMR experiments: all results were acquired using a 3 mm tube at 25° C. on a Bruker 600 MHz Avance II system equipped with a CPPTCI cryoprobe (Bruker BioSpin Corp.). In all experiments, the concentration of E6R was fixed at 300 μM (from a stock of 25 mM in deuterated DMSO) and the concentration of the protein at 10 μM. The volume of deuterated DMSO was kept constant (1.5%) in all tested samples. Right before the experiments, the compound and protein were diluted in 1×PBS containing 0.1% deuterated dithiothreitol (DTT) to a total volume of 200 μL. Samples were diluted by 5% with D2O for magnetic field lock. Spectra were acquired for ligand only, protein only, and ligand+protein. […] STD experiments [Mayer et al 2001] were acquired with 160 scans, with protein irradiation applied for 3 s at 0 ppm and −20 ppm for the on and off resonance experiments, respectively. On and off resonance spectra were collected and stored separately. One-dimensional CPMG-R2 edited experiments [Hajduk et al 1997] were collected for samples with and without proteins using seven CPMG delays (0, 25, 50, 100, 300, 500, and 800 ms) with four scans per delay. Proton spectra used to measure DLB and chemical shift perturbations in the absence and presence of the proteins were recorded with 16 scans using a recycle delay of 3 s. […]

[2] = target: T1, PAH2 domain of mouse M. musculus SIN3B (Mus musculus, UniProt Q62141, C241A); test: Ligand-detected NMR, mouse SIN3B PAH2; format: binding
T1 construct: M. musculus SIN3B PAH2 C241A (residues 148-252) expressing plasmid; GST (cleaved yes); made in house; host or cells: E. coli BL21 (DE3), minimal medium with 15N-ammonium chloride and 13C-glucose
Experimental: Expression of mouse ^13C/^15N SIN3B PAH2: the same M. musculus SIN3B PAH2 C241A (residues 148-252) expressing plasmid as reported by [Kumar et al 2011] was used here. The construct was overexpressed in E. coli BL21 (DE3) in 1 L of minimum medium supplemented with 1 g 15N-ammonium chloride (Cambridge Isotope Laboratories) and 2 g 13C-glucose (Cambridge Isotope Laboratories). Cells were grown at 37° C. to an OD of 0.8, cooled to 17° C., induced with 500 μM isopropyl-1-thio-D-galactopyranoside, incubated overnight at 17° C., collected by centrifugation, and stored at −80° C. 13C/15N-double labeled protein was purified as for other GST-fused constructs. The GST tag was cleaved as described above.
Ligand-detected NMR experiments: all results were acquired using a 3 mm tube at 25° C. on a Bruker 600 MHz Avance II system equipped with a CPPTCI cryoprobe (Bruker BioSpin Corp.). In all experiments, the concentration of E6R was fixed at 300 μM (from a stock of 25 mM in deuterated DMSO) and the concentration of the protein at 10 μM. The volume of deuterated DMSO was kept constant (1.5%) in all tested samples. […] Proton spectra used to measure DLB and chemical shift perturbations in the absence and presence of the proteins were recorded with 16 scans using a recycle delay of 3 s. […]

[3] = system: cycloheximide (CYH) sensitivity; test: Yeast cycloheximide sensitivity at 37° C.; format: cell-based, S. cerevisiae
Experimental: For assessment of cycloheximide (CYH) sensitivity at 37° C., yeast cells with the cyh2^R genotype (FIG. 29) were first transformed with an empty pDEST-AD-TRP1-CYH2 plasmid (FIG. 30) before running the different experiments. Selection of the plasmid was maintained by culturing cells in SC-W medium.

[4] = system: full-length G. princeps luciferase; test: GPCA control with full-length luciferase; format: cell-based, Gaussia princeps; settings: 16 h
Experimental: The ability of compounds to inhibit binary PPIs in the Sin3/Rpd3L HDAC complex was tested by GPCA in a high-throughput screening format. Interactions identified in the mapping at 1.0% […]2 detection cutoff were reconstituted by expressing protein pairs in the exact same orientations. […] HEK293T cells were transfected with 100 ng of each GPCA plasmid expressing either protein X, or protein Y, as described above. […] The luminescence signal for each PPI was measured by averaging the different DMSO replicates, and calculating the standard deviation of DMSO values for each interaction. For each PPI, an individual data point for every compound tested was obtained and this value was compared to the averaged DMSO value. For each interaction, a particular compound was scored as a PPI inhibitor when it decreased its luminescence signal by at least three standard deviations compared to the corresponding averaged DMSO value. […] 50 μL/well of the Renilla luciferase substrate (Renilla Luciferase Assay system, cat #E2820, Promega) were then added and luminescence was read approximately two minutes after injection using a Centro XS^3 LB960 plate reader (3 s integration). For each plate, signal was measured twice and the first measurement was used for calculations. Results were normalized by averaging raw luminescence values from DMSO wells and dividing each data point by this averaged value.

T1 sequence (Q62141 148-252 C241A): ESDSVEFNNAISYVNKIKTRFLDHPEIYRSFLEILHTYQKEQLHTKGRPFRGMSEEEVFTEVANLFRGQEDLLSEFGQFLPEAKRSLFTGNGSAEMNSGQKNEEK

Structure (SMILES): C[C@@H](NC(=O)c1c(O)n2ccccc2nc1=O)c1ccccc1 [E6R, 4-hydroxy-2-oxo-N—((R)-1-phenylethyl)-3,4-dihydro-2H-pyrido[, 2-a]pyrimidine-3-carboxamide]
- binding to other PAH domains of yeast Sin3 by NMR [1]: can bind
- binding to mouse SIN3B PAH2 by NMR [2]: virtually identical to those of yeast Sin3 PAH2

Structure (SMILES): CC(/C=C/C(=O)NO)=C\[C@@H](C)C(=O)c1ccc(N(C)C)cc1 [TSA, trichostatin A]
- CYH sensitivity [3]: induced

Structure (SMILES): CC(NC(=O)c1c(O)n2ccccc2nc1=O)c1ccccc1 (racemic) [E6]
- effect on full-length G. princeps luciferase [4]: does not perturb
